Converted amounts (≈) assume the structure as drawn. Like-named read-outs stand apart in the source and are kept apart here.
Key:
[1] = system: Erysiphe graminis (f. sp. tritici); experiment: whole plant or invertebrate; format: in vivo
Pythium ultimum = Pythium ultimum in vitro Fungitoxicity Assay in liquid culture; format: cell-based, Pythium ultimum (ATCC 26083); settings: Globisporangium ultimum; mycelial dry weight, 48 h at 25° C., shaking at 60 rpm; read-out: EC 50
Protocol: Selected compounds of Examples 1-120 were subjected also to the following in vitro fungitoxicity assay against Pythium ultimum in a liquid culture, with the results as indicated in Table 6.
Pythium ultimum Fungitoxicity Assay
A dilution series of the test compound was prepared in dimethylsulfoxide, and 0.1 ml of each dilution was added to 19.9 ml of a liquid asparagine-sucrose medium (D. C. Erwin and K. Katznelson (1971), Can. J. Microbiol. 7, 15) in 9 cm diameter petri dishes to give the desired final concentrations of test compound. Plates were inoculated with mycelial plugs, 7 mm diameter, taken from the growing edge of 48 h old cultures of Pythium ultimum, (ATCC 26083), grown on potato dextrose agar. Two replicate plates were used for each treatment. The increase in mycelial dry weight was determined after growth for 48 h at 25° C. with shaking at 60 rpm. EC50 values were calculated from dose response curves.

[2] = system: Pellicularia filamentosa (f. sp. sasiki); experiment: whole plant or invertebrate; format: in vivo
[3] = system: Puccinia recondita (f. sp. tritici Races PKB and PLD); experiment: whole plant or invertebrate; format: in vivo; settings: for pest or weed control at 100 ppm / pest or weed control at 200 ppm / pest or weed control at 50 ppm: Puccinia recondita, 240 h, read-out: % Control WLR; for % Control WLR: in vivo
Pseudomonas fluorescens = experiment: Alternate Minimum Inhibitory Concentrations Test (Table 4), Ps.fl; format: cell-based; settings: Table 4 alternate test, 250 ppm to 0.8 ppm in TSB, 72 hours, 30° C.; for MIC: Pseudomonas fluorescens, read-out: MIC Ps.fl
Outline: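 MIC taken as lowest concentration showing no growth after 72 h incubation at 30 °C in TSB. Twofold dilution series spanned 250 down to 0.8 ppm, wells inoculated with phosphate-buffer-diluted 24 h culture.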

Phytophthora infestans = experiment: whole plant or invertebrate; format: in vivo; settings: for pest or weed control at 100 ppm / pest or weed control at 200 ppm: Phytophthora infestans, in Solanum lycopersicum, 96 h; for pest or weed control at 100 ppm: read-out: % Control TLB, application rate 100 ppm
[4] = system: Pseudoperonospora cubensis; experiment: whole plant or invertebrate; format: in vivo; settings: for pest or weed control at 12 ppm / pest or weed control at 50 ppm / pest or weed control at 200 ppm: Pseudoperonospora cubensis, in Cucumis sativus, 168 h, read-out: % Control CDM
Piricularia oryzae = experiment: whole plant or invertebrate; format: in vivo; settings: for pest or weed control at 200 ppm / pest or weed control at 50 ppm: Pyricularia oryzae; for pest or weed control at 50 ppm: read-out: % Control RB, application rate 50 ppm
[5] = system: Puccinia graminis (f. sp. tritici Race 15B-2); experiment: whole plant or invertebrate; format: in vivo
[6] = Blumeria graminis, read-out: % Control WPM
[7] = read-out: % Control RB, application rate 200 ppm
[8] = Puccinia graminis, 336 h, read-out: % Control WSR
[9] = read-out: % Control TLB, application rate 200 ppm

Molecule	EC50 (Pythium ultimum) [µg/mL]	MIC (Pseudomonas fluorescens) [µg/mL]	pest or weed control at 200 ppm [1, 6] [%]	pest or weed control at 200 ppm (Piricularia oryzae; [7]) [%]	pest or weed control at 200 ppm [3] [%]	pest or weed control at 200 ppm (Phytophthora infestans; read-out: % Control TLB) [%]	pest or weed control at 200 ppm [5, 8] [%]	pest or weed control at 200 ppm ([2]; 120 h, read-out: % Control RSB) [%]	pest or weed control at 200 ppm (Phytophthora infestans; [9]) [%]	pest or weed control at 200 ppm [4] [%]	pest or weed control at 100 ppm [5, 8] [%]	other results
CCCCCCCCNC(=O)/C=C\SCn1cncn1 [Compound 7, N-octyl-cis-3-[1-(1,2,4-triazoyl)methylthio]acrylamide]	50 (≈ 169 µM)	> 250										pest or weed control at 100 ppm [1, 6]: 0%; pest or weed control at 6 ppm ([2]; 120 h, read-out: % Control RSB): 50%; pest or weed control at 100 ppm [3]: 0%; pest or weed control at 100 ppm (Phytophthora infestans): 0%
CCCCCCCCNC(=O)/C=C\SC(=O)c1ccc(N=C=S)cc1 [Compound 48, N-octyl-cis-3-[(4-isothiocyanobenzoyl)thio]acrylamide]	8.2 (≈ 21.8 µM)	> 250										pest or weed control at 100 ppm (Phytophthora infestans): 0%
CCCCCCCCNC(=O)/C=C\SC(=O)c1ccc(Br)cn1 [Compound 53, N-octyl-cis-3-[(5-bromo-2-pyridine)carbonylthio]acrylamide]	10.2 (≈ 25.5 µM)	> 250										pest or weed control at 100 ppm [1, 6]: 0%; pest or weed control at 100 ppm ([2]; 120 h, read-out: % Control RSB): 0%; pest or weed control at 100 ppm [3]: 0%; pest or weed control at 100 ppm (Phytophthora infestans): 0%
CCCCCCCCNC(=O)/C=C\SC(=O)c1ccc2ccccc2c1 [Compound 56, N-octyl-cis-3-[(2-naphthanoyl)thio]acrylamide]		> 250	0	0	0	80	75					pest or weed control at 12 ppm [4]: 50%; pest or weed control at 50 ppm ([2]; 120 h, read-out: % Control RSB): 80%
CCCCCCCCNC(=O)/C=C\SC(=O)/C=C/C(=O)OCC [Compound 57, N-octyl-cis-3-[(trans-3-ethoxycarbonyl-2-propenoyl)thio]acrylamide]		> 250		75	25	90	90	0				pest or weed control at 12 ppm [1, 6]: 50%; pest or weed control at 50 ppm [4]: 70%
C/C=C/C=C/C(=O)S/C=C\C(=O)NCCCCCCCC [Compound 59, N-octyl-cis-3-[(trans,trans-2,4-hexadienoyl)thio]acrylamide]		> 250	0	0	0	80	50					pest or weed control at 50 ppm [4]: 70%; pest or weed control at 50 ppm ([2]; 120 h, read-out: % Control RSB): 50%
CCCCCCCCNC(=O)/C=C\SC(=O)c1cccn1C [Compound 61, N-octyl-cis-3-[(1-methyl-2-pyrrole)carbonylthio]acrylamide]	59.5 (≈ 185 µM)	> 250	0	0	0			0	0			
CCCCCCCCNC(=O)/C=C\SC(=O)/C=C/c1ccco1 [Compound 68, N-octyl-cis-3-[(trans-3-(2-furan)propenoyl)thio]acrylamide]		> 250	0		0	90	90	0				pest or weed control at 12 ppm [4]: 70%; pest or weed control at 50 ppm (Piricularia oryzae): 80%
CCCCCCCCNC(=O)/C=C\SC(=O)CCc1ccccc1 [Compound 69, N-octyl-cis-3-[(3-phenylpropanoyl)thio]acrylamide]		> 250	0	80			75	0	100			pest or weed control at 50 ppm [4]: 85%; % Control WLR [3]: 0 % Control
CCCCCCCCNC(=O)/C=C\SC(=O)/C=C/c1ccc(C(F)(F)F)cc1 [Compound 70, N-octyl-cis-3-[(trans-3-(4-(trifluoromethyl)phenyl)propenoyl)thio]acrylamide]	5 (≈ 12.1 µM)	> 250	0	50	0			0	0			
CCCCCCCCNC(=O)/C=C\SC(=O)c1nccc2ccccc12 [Compound 73, N-octyl-cis-3-[(1-isoquinoline)carbonylthio]acrylamide]	8.4 (≈ 22.7 µM)	> 250	0	0	25			0	0			
CCCCCCCCNC(=O)/C=C\SC(=O)CCCc1ccccc1 [Compound 80, N-octyl-cis-3-[(4-phenylbutanoyl)thio]acrylamide]		> 250	0	50	0		75	50	100			pest or weed control at 50 ppm [4]: 85%
CCCCCCCCNC(=O)/C=C\SC(=O)/C(=C/c1ccccc1)c1ccccc1 [Compound 82, N-octyl-cis-3-[(cis-2,3-diphenylpropenoyl)thio]acrylamide]		> 250	0	90				0	0	0	50	pest or weed control at 50 ppm [3]: 50%
CCCCCC#CC(=O)S/C=C\C(=O)NCCCCCCCC [Compound 86, N-octyl-cis-3-[(2-octynoyl)thio]acrylamide]		> 250	0	0	50	90		0		85	0	
CCCCCCCCNC(=O)/C=C\SC(=O)COC [Compound 87, N-octyl-cis-3-(methoxyacetylthio)acrylamide]		> 250			80	90		0		100		pest or weed control at 12 ppm [1, 6]: 50%; pest or weed control at 200 ppm (Piricularia oryzae; read-out: % Control RB): 95%; pest or weed control at 10 ppm [5, 8]: 50%
CCCCCCCCNC(=O)/C=C\SC(=O)C1=CC(=O)CC(C)(C)O1 [Compound 89, N-octyl-cis-3-[(3,4-dihydro-2,2-dimethyl-4-oxo-2H-pyran-6-carbonyl)thio]acrylamide]		> 250	0		90	90		0		70	80	pest or weed control at 200 ppm (Piricularia oryzae; read-out: % Control RB): 95%
CCCCCCCCNC(=O)/C=C\SC(=O)CC1C=CCC1 (stereo not shown) [Compound 93]		> 250	75		50	90		0		99	50	pest or weed control at 50 ppm (Piricularia oryzae): 90%
CCCCCCCCNC(=O)/C=C\SC(=O)/C=C/c1ccc([N+](=O)[O-])cc1 [Compound 96, N-octyl-cis-3-[(trans-3-(4-nitrophenyl)propenoyl)thio]acrylamide]		> 250	75					50	0	95	0	pest or weed control at 200 ppm (Piricularia oryzae; read-out: % Control RB): 95%; pest or weed control at 50 ppm [3]: 0%
CCCCCCCCNC(=O)/C=C\SC(=O)c1cccc(OC)c1[N+](=O)[O-] [Compound 98, N-octyl-cis-3-[(2-nitro-3-methoxybenzoyl)thio]acrylamide]		> 250			50	90		0		50	0	pest or weed control at 50 ppm [1, 6]: 0%; pest or weed control at 200 ppm (Piricularia oryzae; read-out: % Control RB): 99%
N-octyl-cis-3-[(2-butenoyl)thio]acrylamide [Compound 20]												% Control WPM ([1]; in vivo): 0 % Control; % Control CDM ([4]; in vivo): 85 % Control; % Control RB (Piricularia oryzae; in vivo): 50 % Control; % Control RSB ([2]; in vivo): 0 % Control; % Control WLR [3]: 0 % Control; MIC Ps.fl (Pseudomonas fluorescens): > 250 Ppm; % Control TLB (Phytophthora infestans; application rate 6 ppm): 95 % Control; % Control WSR ([5]; application rate 200 ppm): 75 % Control
